Source: US20100172848A1, “SKIN AND SURFACE DISINFECTANT COMPOSITIONS CONTAINING BOTANICALS” (The Trustees Of Columbia University In the City of New York, priority 2008, published 2010)

Experiments:
[1] = tested on: S. aureus; test: Five-minute kill test of solutions in 10% SDA40-B alcohol and water, colony counts on TSA; assay type: cell-based; settings: 5 minutes contact
Procedure: Various concentrations of basil oil and acetic, lactic, and citric acids, separately and in combination, were prepared in 10 percent SDA40-B alcohol and water, and adjusted to 100 percent. Except for citric acid, which was added by weight, all other ingredients were measured by volume. 0.9 ml of each solution were dispensed in sterile culture tubes, in triplicate, and 0.1 ml of a 10^7 cfu/ml S. aureus culture was added to the tubes, vortexed, and then, five minutes later, 9.0 ml of drug inactivating medium was added to each tube. Serial dilutions were made with the drug inactivating medium. 0.5 ml of the dilutions were plated on trypticase soy agar (“TSA”) plates. As a control, water containing 10 percent SDA40-B alcohol was processed in parallel. The plates were incubated at 37° C. for 24-48 hours and then the colony counts were determined.
The same methodology was used to test the antimicrobial activity of combinations of citric acid with other essential oils.
Next, the same general protocol was used to test the efficacy of basil, cinammon and citronella oils against a variety of organisms, namely E. coli, P. aeruginosa, MRSA, C. albicans, and S. aureus.
Various concentrations of cinnamon leaf oil and citric acid were dissolved in SDA 40-B alcohol (10%) and water, and adjusted to 100 percent. Except for citric acid, which was added by weight, all other ingredients were measured by volume. 0.9 ml of each solution were dispensed in sterile culture tubes, in triplicate, and 0.1 ml of 10^7 cfu/ml of S. aureus culture was added to the tubes, vortexed, and then, five minutes later, 9.0 ml of drug inactivating medium was added to each tube. Serial dilutions were made with the drug inactivating medium. 0.5 ml of the dilutions were plated on trypticase soy agar (“TSA”) plates. As a control, water containing 10% percent SDA40-B alcohol was processed in parallel. The plates were incubated at 37° C. for 24-48 hours and then the colony counts were determined.
The following experiments were performed to evaluate the antibacterial activity of LG and Citric acid dissolved in alcohol, where the test organism used was S. aureus. Various amounts of LG oil and Citric acid were dissolved in SDA40-B alcohol, and then water was added to result in the EO concentration shown and an alcohol concentration of 10 percent. 0.9 ml of each solution were dispensed in sterile culture tubes, in triplicate, and 0.1 ml of a 10^7 cfulml S. aureus culture was added to the tubes, vortexed, and then, five minutes later, 9.0 ml of drug inactivating medium was added to each tube. Serial dilutions were made with drug inactivating medium. 0.5 ml of the dilutions were plated on trypticase soy agar (“TSA”) plates. As a control, water containing 10 percent SDA40-B alcohol was processed in parallel. The plates were incubated at 37° C. for 24-48 hours and then the colony counts were determined.

[2] = tested on: S. aureus; test: Soap rapid antimicrobial activity (30 second kill) with bovine serum; assay type: cell-based
Procedure: The antimicrobial activity of the above soap was tested in parallel with commercial Softsoap® containing triclosan (Softsoap Antibacterial; Colgate-Palmolive). 0.1 ml of a 10^8 cfu/ml culture of each microbe tested was mixed with 0.1 ml of bovine serum and placed in a sterile culture tube. 0.8 ml of the test soap formulation was added to the tube and vortexed for 30 seconds. Then 9.0 ml DNB was added to neutralize the activity of the soap. The tube was then vortexed and serially diluted with DNB. 0.5 ml of the diluted solution was plated on TSA plates. The same soap base lacking cinnamon oil, citric acid, and orange oil, with phosphate buffered saline mixed with the culture, were used as the controls.
The antimicrobial activity of the above soap was tested in parallel with commercial Dial® Antibacterial Hand Soap) containing triclosan. 0.1 ml of a 10^8 cfu/ml culture of each microbe tested was mixed with 0.1 ml of bovine serum and placed in a sterile culture tube. 0.8 ml of the test soap formulation was added to the tube and vortexed for 30 seconds. Then 9.0 ml DNB was added to neutralize the activity of the soap. The tube was then vortexed and serially diluted with DNB. 0.5 ml of the diluted solution was plated on TSA plates. […]
(§1) A mixture of 0.1 ml of 10^7 cfu/ml of S. aureus culture and 0.1 ml of bovine serum were placed in a sterile culture tube. […] 0.5 ml of the diluted solution was plated on trypticase soy agar plates, incubated at 37° C. for 24-48 hrs and the colony counts were determined. […]
as §1
A mixture of 0.1 ml of 10^8 cfu/ml of S. aureus culture and 0.1 ml of bovine serum were placed in a sterile culture tube. […] 0.5 ml of the diluted solution was plated on trypticase soy agar plates, incubated at 37° C. for 24-48 hrs and the colony counts were determined.

[3] = 10 percent SDA40-B alcohol, control counts 1 × 10^6 to 5 × 10^6 (Table 67)
[4] = 10 percent SDA40-B alcohol, control counts 1 × 10^6 to 5 × 10^6 (Table 66)
[5] = SDA 40-B alcohol (10%) and water (Table 71)

Structure (SMILES): CC(C)=CCCC(C)=CCCC(C)=CCO [0.25% Farnesol, Farnesol]
- Log 10 reduction [1, 3]: 0 log10

Structure (SMILES): CC(=O)O [1% Acetic acid (AA), Acetic acid]
- Log 10 reduction [1, 4]: 0.2 log10

Structure (SMILES): O=C(O)CC(O)(CC(=O)O)C(=O)O [1% Citric Acid (CA), Citric Acid]
- Log 10 reduction [1, 4]: 0.1 log10
- Log 10 reduction [1, 3]: 0.1 log10
- Log10 reduction from control ([1]; 10 percent alcohol, control counts 1 × 10^6 to 5 × 10^6 (Table 79)): 0.3 log10
- Log 10 reduction ([1]; SDA 40-B alcohol (10%) and water (Table 71), listed as Citric Acid 1.0%): 0.30 log10

Structure (SMILES): CC(O)C(=O)O (centres unmarked) [1% Lactic acid (LA), Lactic acid]
- Log 10 reduction [1, 4]: 2.3 log10

Structure (SMILES): CCCCCCCCC(O)CO (centres unmarked) [1,2 decanediol (0.3%)]
- Log10 reduction from control ([2]; alkanediol 0.3% w/w where present, control counts 2 × 10^8-5 × 10^8): 0.6 log10

Structure (SMILES): CCCCCCCCC(O)CO (centres unmarked) [1,2 decanediol(0.5%)]
- Log10 reduction from control ([2]; alkanediol 0.5% w/w where present, soap pH 4.5-4.6, control counts 2 × 10^8-5 × 10^8): 1.4 log10

Structure (SMILES): O=C(O)CC(O)(CC(=O)O)C(=O)O [1.0 citric acid]
- Log10 reduction from control ([2]; compounds (% w/w) in soft soap lacking triclosan, PBS control counts 7 × 10^7-1 × 10^8): 1.3 log10

Structure (SMILES): O=C(O)CC(O)(CC(=O)O)C(=O)O [Citric Acid 0.5%, Citric Acid]
- Log 10 reduction [1, 5]: 0.20 log10

Structure (SMILES): O=C(O)CC(O)(CC(=O)O)C(=O)O [Citric Acid 0.25%, Citric Acid]
- Log 10 reduction [1, 5]: 0.08 log10

Structure (SMILES): O=C(O)CC(O)(CC(=O)O)C(=O)O [Citric Acid 0.125%, Citric Acid]
- Log 10 reduction [1, 5]: 0.02 log10

Structure (SMILES): O=C(O)CC(O)(CC(=O)O)C(=O)O [Citric Acid 2%, Citric Acid]
- Log 10 reduction [1, 5]: 0.32 log10
